# Measured values from patent publication US20230085307A1, “PYRIDAZINONE COMPOUND AND HERBICIDE” (NISSAN CHEMICAL CORPORATION, priority 2019, published 2023).
# Experiments:
# blackgrass [1] = experiment: Test Example 4: herbicidal effect by soil treatment (Table 19, symbol J); type: in vivo, blackgrass (Alopecurus myosuroides); conditions: amount of applied herbicide 320 g/ha
# Outline: (§1)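 Soil-surface application: an emulsion agent diluted with water to the predetermined dose is sprayed uniformly over seeds lying under roughly 1.5 cm of sterilized diluvial soil. Boxes stay in a greenhouse at 25° C. to 30° C. Three weeks later, each species is graded on previously defined criteria.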
# lambsquarters [2] = experiment: Test Example 5: herbicidal effect by foliage application, plastic box (Table 20, symbol O); type: in vivo, lambsquarters (Chenopodium album); conditions: amount of applied herbicide 320 g/ha; foliage application after 14-day growth; evaluated three weeks after application
# Outline: (§2)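 Sow seeds spot-wise in sterilized diluvial soil; cover with ~1.5 cm soil. Grow 14 days in greenhouse, 25° C. to 30° C. Spray foliage with emulsion diluted to predetermined amount. Rate effect after 3 weeks.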
# green foxtail [3] = experiment: Test Example 5: herbicidal effect by foliage application, plastic box (Table 20, symbol G); type: in vivo, green foxtail (Setaria viridis); conditions: amount of applied herbicide 320 g/ha; foliage application after 14-day growth; evaluated three weeks after application
# Outline: as §2
# chickweed [4] = experiment: Test Example 4: herbicidal effect by soil treatment (Table 19, symbol P); type: in vivo, common chickweed (Stellaria media); conditions: amount of applied herbicide 320 g/ha
# Outline: as §1
# persian speedwell [5] = experiment: Test Example 5: herbicidal effect by foliage application, plastic box (Table 20, symbol R); type: in vivo, Persian speedwell (Veronica persica); conditions: amount of applied herbicide 320 g/ha; foliage application after 14-day growth; evaluated three weeks after application
# Outline: as §2
# persian speedwell [6] = experiment: Test Example 4: herbicidal effect by soil treatment (Table 19, symbol R); type: in vivo, Persian speedwell (Veronica persica); conditions: amount of applied herbicide 320 g/ha
# Outline: as §1
# rice flat sedge = experiment: Test Example 3: herbicidal effect by foliage application, Wagner pot (Table 18, symbol E); type: in vivo, rice flat sedge (Cyperus iria); conditions: 320 g/ha
# Outline: (§3)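 Plants were sown in alluvial soil held under 0.1–0.5 cm standing water and grown 14 days in a greenhouse at 25–30 °C. An emulsifiable formulation, water-diluted to the set dose, was then sprayed onto the foliage, and effects were scored three weeks later using previously defined criteria.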
# velvetleaf [7] = experiment: Test Example 4: herbicidal effect by soil treatment (Table 19, symbol M); type: in vivo, velvetleaf (Abutilon theophrasti); conditions: amount of applied herbicide 320 g/ha
# Outline: as §1
# lambsquarters [8] = experiment: Test Example 4: herbicidal effect by soil treatment (Table 19, symbol O); type: in vivo, lambsquarters (Chenopodium album); conditions: amount of applied herbicide 320 g/ha
# Outline: as §1
# chickweed [9] = experiment: Test Example 5: herbicidal effect by foliage application, plastic box (Table 20, symbol P); type: in vivo, common chickweed (Stellaria media); conditions: amount of applied herbicide 320 g/ha; foliage application after 14-day growth; evaluated three weeks after application
# Outline: as §2
# green foxtail [10] = experiment: Test Example 4: herbicidal effect by soil treatment (Table 19, symbol G); type: in vivo, green foxtail (Setaria viridis); conditions: amount of applied herbicide 320 g/ha
# Outline: as §1
# barnyard grass [11] = experiment: Test Example 3: herbicidal effect by foliage application, Wagner pot (Table 18, symbol H); type: in vivo, barnyard grass (Echinochloa crus-galli); conditions: 320 g/ha
# Outline: as §3
# blackgrass [12] = experiment: Test Example 5: herbicidal effect by foliage application, plastic box (Table 20, symbol J); type: in vivo, blackgrass (Alopecurus myosuroides); conditions: amount of applied herbicide 320 g/ha; foliage application after 14-day growth; evaluated three weeks after application
# Outline: as §2
# barnyard grass [13] = experiment: Test Example 5: herbicidal effect by foliage application, plastic box (Table 20, symbol H); type: in vivo, barnyard grass (Echinochloa crus-galli); conditions: amount of applied herbicide 320 g/ha; foliage application after 14-day growth; evaluated three weeks after application
# Outline: as §2
# wild oat [14] = experiment: Test Example 4: herbicidal effect by soil treatment (Table 19, symbol I); type: in vivo, wild oat (Avena fatua); conditions: amount of applied herbicide 320 g/ha
# Outline: as §1
# barnyard grass [15] = experiment: Test Example 4: herbicidal effect by soil treatment (Table 19, symbol H); type: in vivo, barnyard grass (Echinochloa crus-galli); conditions: amount of applied herbicide 320 g/ha
# Outline: as §1
# velvetleaf [16] = experiment: Test Example 5: herbicidal effect by foliage application, plastic box (Table 20, symbol M); type: in vivo, velvetleaf (Abutilon theophrasti); conditions: amount of applied herbicide 320 g/ha; foliage application after 14-day growth; evaluated three weeks after application
# Outline: as §2
# windgrass [17] = experiment: Test Example 5: herbicidal effect by foliage application, plastic box (Table 20, symbol L); type: in vivo, windgrass (Apera spica-venti); conditions: amount of applied herbicide 320 g/ha; foliage application after 14-day growth; evaluated three weeks after application
# Outline: as §2
# wild oat [18] = experiment: Test Example 5: herbicidal effect by foliage application, plastic box (Table 20, symbol I); type: in vivo, wild oat (Avena fatua); conditions: amount of applied herbicide 320 g/ha; foliage application after 14-day growth; evaluated three weeks after application
# Outline: as §2
# Italian ryegrass [19] = experiment: Test Example 4: herbicidal effect by soil treatment (Table 19, symbol K); type: in vivo, Italian ryegrass (Lolium multiflorum); conditions: amount of applied herbicide 320 g/ha
# Outline: as §1
# Chinese sprangletop = experiment: Test Example 3: herbicidal effect by foliage application, Wagner pot (Table 18, symbol D); type: in vivo, chinese sprangletop (Leptochloa chinensis); conditions: 320 g/ha
# Outline: as §3
# redroot pigweed [20] = experiment: Test Example 4: herbicidal effect by soil treatment (Table 19, symbol N); type: in vivo, redroot pigweed (Amaranthus retroflexus); conditions: amount of applied herbicide 320 g/ha
# Outline: as §1
# southern crabgrass [21] = experiment: Test Example 4: herbicidal effect by soil treatment (Table 19, symbol F); type: in vivo, southern crabgrass (Digitaria ciliaris); conditions: amount of applied herbicide 320 g/ha
# Outline: as §1
# windgrass [22] = experiment: Test Example 4: herbicidal effect by soil treatment (Table 19, symbol L); type: in vivo, windgrass (Apera spica-venti); conditions: amount of applied herbicide 320 g/ha
# Outline: as §1
# redroot pigweed [23] = experiment: Test Example 5: herbicidal effect by foliage application, plastic box (Table 20, symbol N); type: in vivo, redroot pigweed (Amaranthus retroflexus); conditions: amount of applied herbicide 320 g/ha; foliage application after 14-day growth; evaluated three weeks after application
# Outline: as §2
# Italian ryegrass [24] = experiment: Test Example 5: herbicidal effect by foliage application, plastic box (Table 20, symbol K); type: in vivo, Italian ryegrass (Lolium multiflorum); conditions: amount of applied herbicide 320 g/ha; foliage application after 14-day growth; evaluated three weeks after application
# Outline: as §2
# southern crabgrass [25] = experiment: Test Example 5: herbicidal effect by foliage application, plastic box (Table 20, symbol F); type: in vivo, southern crabgrass (Digitaria ciliaris); conditions: amount of applied herbicide 320 g/ha; foliage application after 14-day growth; evaluated three weeks after application
# Outline: as §2
compound,measurement,setting,value
COc1cccc(-c2sc3c(C)cccc3c2-c2c(O)c(C)nn(C)c2=O)c1 [4-108],"Herbicidal effect by soil treatment, J: blackgrass",blackgrass [1],2 (Herbicidal rate of 20% or more and less than 40%)
same,"Herbicidal effect by foliage application, O: lambsquarters",lambsquarters [2],4 (Herbicidal rate of 70% or more and less than 90%)
same,"Herbicidal effect by foliage application, G: green foxtail",green foxtail [3],3 (Herbicidal rate of 40% or more and less than 70%)
same,"Herbicidal effect by soil treatment, P: chickweed",chickweed [4],1 (Herbicidal rate of 5% or more and less than 20%)
same,"Herbicidal effect by foliage application, R: persian speedwell",persian speedwell [5],5 (Herbicidal rate of 90% or more (almost completely withered))
same,"Herbicidal effect by soil treatment, R: persian speedwell",persian speedwell [6],3 (Herbicidal rate of 40% or more and less than 70%)
same,herbicidal effect on rice flat sedge (E),rice flat sedge,5 (Herbicidal rate of 90% or more (almost completely withered))
same,"Herbicidal effect by soil treatment, M: velvetleaf",velvetleaf [7],3 (Herbicidal rate of 40% or more and less than 70%)
same,"Herbicidal effect by soil treatment, O: lambsquarters",lambsquarters [8],4 (Herbicidal rate of 70% or more and less than 90%)
same,"Herbicidal effect by foliage application, P: chickweed",chickweed [9],5 (Herbicidal rate of 90% or more (almost completely withered))
same,"Herbicidal effect by soil treatment, G: green foxtail",green foxtail [10],0 (Herbicidal rate of 5% or less (almost no effect))
same,herbicidal effect on barnyard grass (H),barnyard grass [11],4 (Herbicidal rate of 70% or more and less than 90%)
same,"Herbicidal effect by foliage application, J: blackgrass",blackgrass [12],4 (Herbicidal rate of 70% or more and less than 90%)
same,"Herbicidal effect by foliage application, H: barnyard grass",barnyard grass [13],2 (Herbicidal rate of 20% or more and less than 40%)
same,"Herbicidal effect by soil treatment, I: wild oat",wild oat [14],0 (Herbicidal rate of 5% or less (almost no effect))
same,"Herbicidal effect by soil treatment, H: barnyard grass",barnyard grass [15],0 (Herbicidal rate of 5% or less (almost no effect))
same,"Herbicidal effect by foliage application, M: velvetleaf",velvetleaf [16],4 (Herbicidal rate of 70% or more and less than 90%)
same,"Herbicidal effect by foliage application, L: windgrass",windgrass [17],0 (Herbicidal rate of 5% or less (almost no effect))
same,"Herbicidal effect by foliage application, I: wild oat",wild oat [18],0 (Herbicidal rate of 5% or less (almost no effect))
same,"Herbicidal effect by soil treatment, K: Italian ryegrass",Italian ryegrass [19],1 (Herbicidal rate of 5% or more and less than 20%)
same,herbicidal effect on Chinese sprangletop (D),Chinese sprangletop,0 (Herbicidal rate of 5% or less (almost no effect))
same,"Herbicidal effect by soil treatment, N: redroot pigweed",redroot pigweed [20],5 (Herbicidal rate of 90% or more (almost completely withered))
same,"Herbicidal effect by soil treatment, F: southern crabgrass",southern crabgrass [21],2 (Herbicidal rate of 20% or more and less than 40%)
same,"Herbicidal effect by soil treatment, L: windgrass",windgrass [22],0 (Herbicidal rate of 5% or less (almost no effect))
same,"Herbicidal effect by foliage application, N: redroot pigweed",redroot pigweed [23],4 (Herbicidal rate of 70% or more and less than 90%)
same,"Herbicidal effect by foliage application, K: Italian ryegrass",Italian ryegrass [24],5 (Herbicidal rate of 90% or more (almost completely withered))
same,"Herbicidal effect by foliage application, F: southern crabgrass",southern crabgrass [25],3 (Herbicidal rate of 40% or more and less than 70%)
